# Source: BindingDB's records for patent US20240336562 (Hangzhou Innogate Pharma, 2024)
# Target: NACHT, LRR and PYD domains-containing protein 3 (Homo sapiens, UniProt Q96P20)
# Assay: Inhibitory Activity of NLRP3
# Method: ELISA plate, and incubated at 4° C. overnight. Discard the liquid in the ELISA plate and wash it 4 times with eluent. Add 300 μL/well reagent diluent and incubate the ELISA plate at room temperature for 1.5 hours. Wash the plate with eluent for four times. Then 100 μL/well samples were added to ELISA plate coated with IL1β and incubated at room temperature for 2 h. Wash the plate with eluent for four times. Each well was added with 100 μL detection antibody and incubated at 37° C. for 2 h. Wash the plate with eluent for four times. Add 100 μL of HRP labeled secondary antibody to each well. Incubate at 37° C. for 1 hour. Wash the plate with eluent for four times. Add 100 μL of A+B substrate per well. Incubate at 37° C. for 30 minutes. Add 100 μL STOP solution per well. Gently shake the plate for a few seconds. Read the absorption value at 450 nm on the EnVision multifunction reader and calculate the Inhibitory rate according to the following formula: Inhibition %=(Ave_H-Sample)/(Ave_H-Ave_L). Among them, Ave_H represents the average value of DMSO well, Sample represents the average value of compound well, and Ave_L represents the average value of 10 μM positive control well. The log value of concentration was taken as the X-axis and the percentage inhibitory rate as the Y-axis. […]
# Chain of NACHT, LRR and PYD domains-containing protein 3 (Q96P20 whole entry, the tested form may be a part): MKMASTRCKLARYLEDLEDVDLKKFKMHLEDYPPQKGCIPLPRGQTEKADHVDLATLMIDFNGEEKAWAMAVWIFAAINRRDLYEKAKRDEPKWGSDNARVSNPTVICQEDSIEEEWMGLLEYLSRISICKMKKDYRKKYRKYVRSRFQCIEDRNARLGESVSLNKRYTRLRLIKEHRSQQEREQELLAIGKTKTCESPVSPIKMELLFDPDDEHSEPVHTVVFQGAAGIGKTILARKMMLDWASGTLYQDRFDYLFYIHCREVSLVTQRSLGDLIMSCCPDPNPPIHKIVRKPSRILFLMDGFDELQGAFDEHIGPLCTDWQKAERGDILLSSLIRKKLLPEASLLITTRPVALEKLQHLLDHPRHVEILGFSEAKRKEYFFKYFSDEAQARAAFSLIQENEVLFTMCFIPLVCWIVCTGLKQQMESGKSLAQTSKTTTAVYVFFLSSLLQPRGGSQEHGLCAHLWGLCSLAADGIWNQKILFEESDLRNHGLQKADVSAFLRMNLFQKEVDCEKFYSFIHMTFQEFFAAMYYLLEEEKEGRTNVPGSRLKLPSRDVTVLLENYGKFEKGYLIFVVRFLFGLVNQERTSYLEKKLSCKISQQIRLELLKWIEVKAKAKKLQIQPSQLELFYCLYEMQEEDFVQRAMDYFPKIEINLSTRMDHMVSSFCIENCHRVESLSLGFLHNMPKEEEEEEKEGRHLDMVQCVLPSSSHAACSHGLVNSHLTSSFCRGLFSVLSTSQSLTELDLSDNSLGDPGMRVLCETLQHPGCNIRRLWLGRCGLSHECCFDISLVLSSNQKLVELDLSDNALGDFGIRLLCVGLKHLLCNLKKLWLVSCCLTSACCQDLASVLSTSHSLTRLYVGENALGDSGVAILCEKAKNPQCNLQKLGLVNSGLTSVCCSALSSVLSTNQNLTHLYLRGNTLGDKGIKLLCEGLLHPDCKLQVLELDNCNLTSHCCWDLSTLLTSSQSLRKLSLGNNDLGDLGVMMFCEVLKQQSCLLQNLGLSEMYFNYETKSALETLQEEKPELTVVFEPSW
smiles,measurement,value
"COc1cc(-c2c(C)cc3c(c2NC(=O)NS(=O)(=O)c2ccn(C4CC(=C(F)F)C4)n2)CCC3)ccn1 (stereo unspecified) [US20240336562, Compound 22]",IC50,< 25 nM
